In patent US9109041B2, “Analog compounds of analgesic peptides derived from the venom of crotalus durissus terrificus snakes, their uses, compositions, methods of preparation and purification” (priority 2004, dated 2015):

What was measured:
[1] = test system: hyperalgesia induced by the Walker 256 tumor; experiment: hyperalgesia induced by the Walker 256 tumor (cancer pain); format: in vivo, rat; settings: saline + antagonist alone i.pl. (ICI 10, nor-BNI 50, CTOP 20 μg/paw); for pain threshold, FM / pain threshold, IM: 5th day; for pain threshold, FM: 2 hours after treatment; for pain threshold, IM: before treatment; for pain threshold, BM: before injection of the tumor
Text: The Walker 256 tumor cells were kindly provided by Prof. Dr. Rui Curi, of the Physiology and Biophysics Department of the Biomedical Science Institute of the University of São Paulo. The tumor-bearing animal was sacrificed and the tumoral tissue was removed, placed on a Petri dish containing 0.9% saline. Then, the tumor was cut in smaller parts, and transferred into a beaker containing saline. The material was triturated with a fine-cut, until the tumor is totally fragmented. Then, this material was filtered in gauze and the liquid collected in a beaker. All procedures were performed on ice. The material of the beaker was transferred to 50 ml plastic tubes and centrifuged at 4° C., for 10 minutes, at 1200 rpm. After centrifugation, the supernatant was rejected and the precipitate resuspended in saline 0.9%. For cell counts, the suspension of cells was diluted (1:100) in saline. An aliquot (200 μl) was removed and placed in a test tube containing 200 μl of 1% Trypan blue. The cell number was determined in optical microscope using Neubauer's chamber. The cellular viability was determined considering viable the light-refracting cells.
After determining the number of cells, 1 ml of the suspension, containing 1×10^7 cells, was injected by intraperitoneal route, on the right side of the rats to obtain liquid tumor (ascites).
Five days after injection, the rats with ascites were sacrificed and the ascetic fluid collected from the peritoneal cavity and placed in a test tube containing EDTA. The liquid was diluted 100 times with phosphate-buffered saline (PBS), pH 7.4. The cell count was done after dilution with Trypan blue, as described above. Tumor cell count was ascertained to 1×10^6 cells in 100 μl, by dilution with PBS. This number of cells was determined in preliminary tests for induction of cancer pain in rats. In this final cell number adjustment, the volume of antibiotic (Benzetacil®) added to the suspension (150,000 units of antibiotic/10 ml of suspension), was taken into consideration. The antibiotic was used in order to avoid microbial contamination. The cells were injected by intraplantar route into one of the rat hind paws. Control animals were injected with PBS into the contralateral paw, in the same experimental conditions.
Hyperalgesia, allodynia and spontaneous pain were determined before (BM-basal measurement) and 5 days after tumor cell injection, before (IM-initial measurement) and 2 hours after (FM-Final measurement) peptide administration.
The results were analyzed comparing the mean values of the basal and initial measurements, or of the initial and final measurements or, when determined, by comparing the mean values obtained in the different experimental groups (Tables 17, 18, 19).
For this purpose, the animals were treated with CTOP, a specific μ receptor antagonist (20 μg/paw), nor-BNI, a specific κ receptor antagonist (50 μg/paw) or with ICI 174,864, a specific δ receptor antagonist (10 μg/paw). The antagonists were injected by intraplantar route. The peptide was administered in the dose of 6 μg/kg, orally, immediately before the injection of the opioid antagonists. The results were analyzed comparing the mean values of the basal and initial measurements, or of the initial and final measurements or, when determined, by comparing the mean values obtained in the different experimental groups ( Table 20).

[2] = test system: prostaglandin E2-induced hyperalgesia; experiment: rat paw pressure test, prostaglandin E2-induced hyperalgesia; settings: for pain threshold, IM (g) ± S.E.M.: saline p.o. + antagonist alone i.pl. (ICI174,864 10 μg/paw; nor-BNI 50 μg/leg; CTOP 20 μg/leg), before PGE2; for pain threshold, FM (g) ± S.E.M: saline p.o. + antagonist alone i.pl. with PGE2 (ICI174,864 10 μg/paw; nor-BNI 50 μg/leg; CTOP 20 μg/leg), 3 h after PGE2

| Molecule | pain threshold, FM [1] [g] | pain threshold, IM [1] [g] | pain threshold, BM [1] [g] | pain threshold, IM (g) ± S.E.M. [2] [g] | pain threshold, FM (g) ± S.E.M [2] [g] |
| --- | --- | --- | --- | --- | --- |
| Oc1ccc2c3c1O[C@H]1c4[nH]c5c(c4C[C@@]4(O)[C@@H](C2)N(CC2CC2)CC[C@]314)C[C@@]1(O)[C@H]2Cc3ccc(O)c4c3[C@@]1(CCN2CC1CC1)[C@H]5O4 [nor-BNI, nor-Binalthorphimine, reference compound] | 32 ± 1.66 | 33 ± 3.33 | 70 ± 2.88 | 72 ± 1.44 | 56 ± 1.25 |
| CTOP [reference compound] | 32 ± 1.66 | 35 ± 2.88 | 68 ± 1.66 | 74 ± 2.39 | 56 ± 2.39 |
